Measured values as given in PubChem BioAssay AID2060892 (Molecular Pharmacology Branch, DTP, NCI, 2025).

Test system: HOP-62 complex spheroids with HUVEC/MSC, viability
Test: Anticancer human tumor HOP-62 cell line growth inhibition [RAS];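 also: spheroids exposed to agents for seven days before readout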;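 as to viability, T/C: 100% = DMSO vehicle control viability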
Conditions: for IC50: curve of first compound; for viability, T/C: stronger effect = lower value
Method in brief: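 Tumour cells grown as complex spheroids with HUVEC endothelial cells and mesenchymal stem cells, treated with RAS pathway inhibitor combinations. Each agent spans half-log steps from near clinical Cmax, or 10 microM where Cmax is unknown.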

Molecule CCc1c2c(nc3ccc(O)cc13)-c1cc3c(c(=O)n1C2)COC(=O)[C@]3(O)CC + CCn1c(-c2cc(N3CCN(C)CC3)cnc2C(C)OC)c2c3cc(ccc31)-c1csc(n1)CC(NC(=O)C1CC1C)C(=O)N1CCCC(N1)C(=O)OCC(C)(C)C2 has an IC50 (second compound 0.000949 µM) of 1.77 nM, an IC50 (second compound 0.003 µM) of 1.54 nM and an IC50 (second compound 0.00949 µM) of 1.14 nM. The IC50 (second compound 0.03 µM) was under 0.949 nM, the IC50 (second compound 0.0949 µM) was under 0.949 nM and the IC50 (second compound 0.3 µM) was under 0.949 nM. It also gave a viability, T/C (second compound 0.000949 µM, first compound 0.000949 µM) of 83.8%, a viability, T/C (second compound 0.000949 µM, first compound 0.003 µM) of 21.2% and a viability, T/C (second compound 0.000949 µM, first compound 0.00949 µM) of 9.03%. The viability, T/C (second compound 0.000949 µM, first compound 0.03 µM) was 7.89%, the viability, T/C (second compound 0.000949 µM, first compound 0.0949 µM) was 5.5% and the viability, T/C (second compound 0.000949 µM, first compound 0.3 µM) was 1.91%. It also gave a viability, T/C (second compound 0.003 µM, first compound 0.000949 µM) of 72.3%, a viability, T/C (second compound 0.003 µM, first compound 0.003 µM) of 18.9% and a viability, T/C (second compound 0.003 µM, first compound 0.00949 µM) of 13.3%. For the same molecule, the viability, T/C (second compound 0.003 µM, first compound 0.03 µM) was 11.4%, the viability, T/C (second compound 0.003 µM, first compound 0.0949 µM) was 7.41% and the viability, T/C (second compound 0.003 µM, first compound 0.3 µM) was 4.35%. For the same molecule, the viability, T/C (second compound 0.00949 µM, first compound 0.000949 µM) was 55.1%, the viability, T/C (second compound 0.00949 µM, first compound 0.003 µM) was 25.2% and the viability, T/C (second compound 0.00949 µM, first compound 0.00949 µM) was 17.4%. It also gave a viability, T/C (second compound 0.00949 µM, first compound 0.03 µM) of 13.7%, a viability, T/C (second compound 0.00949 µM, first compound 0.0949 µM) of 11.1% and a viability, T/C (second compound 0.00949 µM, first compound 0.3 µM) of 9.59%. For the same molecule, the viability, T/C (second compound 0.03 µM, first compound 0.000949 µM) was 45.6%, the viability, T/C (second compound 0.03 µM, first compound 0.003 µM) was 32% and the viability, T/C (second compound 0.03 µM, first compound 0.00949 µM) was 21.1%. The viability, T/C (second compound 0.03 µM, first compound 0.03 µM) was 15.6%, the viability, T/C (second compound 0.03 µM, first compound 0.0949 µM) was 13.1% and the viability, T/C (second compound 0.03 µM, first compound 0.3 µM) was 13.2%. For the same molecule, the viability, T/C (second compound 0.0949 µM, first compound 0.000949 µM) was 34.5%, the viability, T/C (second compound 0.0949 µM, first compound 0.003 µM) was 32.5% and the viability, T/C (second compound 0.0949 µM, first compound 0.00949 µM) was 19.7%. It also gave a viability, T/C (second compound 0.0949 µM, first compound 0.03 µM) of 14.7%, a viability, T/C (second compound 0.0949 µM, first compound 0.0949 µM) of 12.9% and a viability, T/C (second compound 0.0949 µM, first compound 0.3 µM) of 13.6%. The viability, T/C (second compound 0.3 µM, first compound 0.000949 µM) was 37.8%, the viability, T/C (second compound 0.3 µM, first compound 0.003 µM) was 25.2% and the viability, T/C (second compound 0.3 µM, first compound 0.00949 µM) was 18.5%. For the same molecule, the viability, T/C (second compound 0.3 µM, first compound 0.03 µM) was 15.8%, the viability, T/C (second compound 0.3 µM, first compound 0.0949 µM) was 21.9% and the viability, T/C (second compound 0.3 µM, first compound 0.3 µM) was 15.8%.
